From ChEMBL document CHEMBL1144058, “Pikuroside: a novel iridoid from Picrorhiza kurroa” (1999)

Organism: Mus musculus
Assay: Antiinflammatory activity against croton oil-induced ear swelling in BALB/c mouse after 6 hrs
Type: functional

COc1cc(C(=O)O[C@H]2[C@@H]3C=CO[C@@H](O[C@@H]4O[C@H](CO)[C@@H](O)[C@H](O)[C@H]4O)[C@@H]3[C@@]3(CO)O[C@@H]23)ccc1O [PICROSIDE II]
Activity: 46%
